Reference: patent publication US11331364B2, “Use for JNK inhibitor molecules for treatment of various diseases” (Xigen Inflammation Ltd., priority 2014, dated 2022)
Square brackets hold non-standard residues; d marks the D form. Peptide text beside a SMILES is read from it.

Assays:
human whole blood = assay: LPS-induced IL-6 release in human whole blood; assay type: cell-based; settings: 1, 3, 10 μM 1 h before LPS (0.02 ng/mL), 4 hours
Experimental: FIG. 18 JNK inhibition and IL-6 release in human whole blood. The JNK inhibitor with SEQ ID NO: 172 was added at three different concentrations, namely 1, 3 and 10 μM 1 h before whole blood stimulation with LPS (0.02 ng/mL) for 4 hours.
Whole blood is collected from anesthetized rat or human healthy volunteers using a venipuncture connected to a pre-labeled vacuum tube containing sodium citrate. Tubes are gently mixed by inversion 7-8 times; and are then kept at RT until stimulation. JNK inhibitor of SEQ ID NO: 172 is prepared 6 times concentrated in PBS, and 30 μl/well of mix is added into 96-well plate. Whole blood is diluted by 1:2 in PBS and 120 μl of diluted blood is added in each well where either PBS alone or JNK inhibitor of SEQ ID NO: 172 has been previously added. Whole blood is incubated at 37° C.; 85 rpm (Stuart Orbital incubator SI500) for 60 min. Activators (LPS) are the prepared, 30 μl/well of LPS, 6 times concentrated. After 60 min incubation, LPS is added to the blood, blood is mixed by pipetting up and down, and then kept for 4 h under agitation (85 rpm), at 37° C. […] Cytokine (IL-6, IL-2, IFNγ and TNFα) were then measured using standard Elisa kits (e.g. from R&D Systems: DuoSet Elisas; or from BD Biosciences: BD Opteia Set Elisa). Results are expressed as pg/ml of supernatant of the measured cytokine.

[1] = test system: Adriamycin-induced nephropathy in rats; assay: Adriamycin-induced nephropathy; assay type: in vivo, rat; settings: 2 mg/kg IV Day 0
From the text: Adriamycin treatment induces glomerular disease in rat and mice mimicking human focal segmental and glomerular sclerosis (FSGS). In this model, tubular and interstitial inflammatory lesions occur during the disease course, partly due to heavy proteinuria. In the absence of therapy, kidney disease progresses to terminal renal failure within eight weeks. Podocyte injury is one of the initial steps in the sequences leading to glomerulosclerosis. The aim of the study was to investigate whether a JNK inhibitor could prevent the development of renal lesions and the renal failure.
30 male Sprague-Dawley rats (Charles River) were used in this study (divided into 3 groups of ten rats). Nephropathy was induced by a single intravenous injection of Adriamycin […] on Day 0. The JNK inhibitor of SEQ ID NO: 172 (2 mg/kg; in NaCl 0.9%) or vehicle was administered intravenously into the tail vein on Day 0. The administration volume was 0.2 ml.
Retroorbital blood was collected at Days 7, 14, 28, 42 and 56 from 4 rats per group. Serum creatinine concentrations, blood urea and protidemia were measured using appropriate kits from Advia Chemistry 1650 (Bayer Healthcare AG, Leverkusen, Germany).
Two rats per group were sacrificed on Days 7, 14, 28, 42 and 56 after anesthesia. After animal sacrifice, both kidneys were collected. For histopathological examination fixed tissue specimens were dehydrated in graded alcohol solutions, cleared in toluene, and embedded in paraffin. Sections (4 µm) were stained with periodic acid-Schiff (PAS), and Masson's trichrome staining was performed to detect collagen deposition. Glomerular and tubulointerstitial sclerosis were quantified under microscope.

[2] = test system: K5.STAT3C mouse model of psoriasis; assay: K5.STAT3C mouse model of psoriasis, tape stripping, acanthosis; assay type: in vivo; settings: 5 mg/kg IP QD D0-D5
Experimental: To this end, two independent experiments are performed, each with at least 15 mice per experiment (5 mice per group). In each experiment, BK5.STAT3C heterozygous transgenic mice (Tg(KRT5-Stat3*A661C*N663C)1Jdg, henceforth referred to as K5.STAT3C mice) were randomly allocated to the following experimental groups 1 and 2, and wild-type littermates were allocated to group 3:
On Day 0, psoriasis is induced by tape striping (12-18 times) the back of the mouse after depilation. To this end, mice were anaesthetized using a Ketamine/Xylazine cocktail (100 mg/kg and 10 mg/kg respectively) intraperitoneally, shaved, depilated and skin injury was applied by 15 gentle strokes of tape stripping. Mice were treated with either vehicle (saline) or XG-104 right before anaesthesia on day 0 and once a day thereafter for 5 days. […]
Animals are weighed once on day 0. […] After termination of the study at day 5, approximately 1 cm^2 skin biopsy (lesions) is collected on the back of each mouse, embedded with Optimal Cutting Temperature (OCT)-containing moulds, frozen on dry ice, sectioned in 6 μm slices using a cryotome and stained with H&E. Epidermal thickness (acanthosis) is histologically measured blinded by two independent experimenters. One slide per mouse and 10 different zones of the sections are measured.

[3] = Stability (half-life) in human serum, UPLC-MS; settings: human serum (10 and 50% in PBS; FIG. 5: 50%), 0.1 mM peptide
Experimental: The experiment was performed as described by Tugyi et al. (Proc Natl Acad Sci USA, 2005, 413-418). The remaining intact peptide was quantified by UPLC-MS.

[4] = test system: Primary Rat Whole Blood Cells; assay: LPS-induced TNFα release in rat whole blood; assay type: cell-based; settings: LPS 3 ng/ml; 1, 3, 10 μM
Experimental: Given are the results for the control, 1 μM of SEQ ID NO: 172, 3 μM of SEQ ID NO: 172, and 10 μM of SEQ ID NO: 172 at different levels of LPS (ng/ml).
Whole blood is collected from anesthetized rat or human healthy volunteers using a venipuncture connected to a pre-labeled vacuum tube containing sodium citrate. Tubes are gently mixed by inversion 7-8 times; and are then kept at RT until stimulation. JNK inhibitor of SEQ ID NO: 172 is prepared 6 times concentrated in PBS, and 30 μl/well of mix is added into 96-well plate. Whole blood is diluted by 1:2 in PBS and 120 μl of diluted blood is added in each well where either PBS alone or JNK inhibitor of SEQ ID NO: 172 has been previously added. Whole blood is incubated at 37° C.; 85 rpm (Stuart Orbital incubator SI500) for 60 min. Activators (LPS) are the prepared, 30 μl/well of LPS, 6 times concentrated. After 60 min incubation, LPS is added to the blood, blood is mixed by pipetting up and down, and then kept for 4 h under agitation (85 rpm), at 37° C. After the 4 h incubation, the plates are centrifuged at about 770 g, 4° C. for 15 min in a pre-cooled centrifuge. […] Cytokine (IL-6, IL-2, IFNγ and TNFα) were then measured using standard Elisa kits (e.g. from R&D Systems: DuoSet Elisas; or from BD Biosciences: BD Opteia Set Elisa). Results are expressed as pg/ml of supernatant of the measured cytokine.

CC(C)C[C@H](NC(=O)[C@H](CC(N)=O)NC(=O)[C@H](CC(C)C)NC(=O)[C@@H](NC(=O)[C@@H](C)NC(=O)[C@@H]1CCCN1C(=O)[C@H](CCCNC(=N)N)NC(=O)[C@@H](CCCCN)NC(=O)[C@@H]1CCCN1C(=O)[C@H](CCCNC(=N)N)NC(=O)[C@@H](CCCNC(=N)N)NC(=O)[C@H](CCCNC(=N)N)NC(=O)[C@H](CCCNC(=N)N)NC(=O)[C@H](CCC(N)=O)NC(=O)[C@@H](CCCNC(=N)N)NC(=O)[C@H](CCCNC(=N)N)NC(=O)[C@H](CCCCN)NC(=O)[C@H](CCCCN)NC(=O)[C@H](N)CCCNC(=N)N)[C@@H](C)O)C(=O)N[C@H](Cc1ccccc1)C(N)=O [SEQ ID NO: 172, rKKRrQRRrRPkRPaTLNLf] (H-[dR]KKR[dR]QRR[dR]RP[dK]RP[dA]TLNL[dF]-NH2; N-terminus assumed)
LPS-induced IL-6 release (human whole blood): did reduce the LPS-induced IL-6 release in a dose-dependent manner
kidney histopathology (PAS, Masson trichrome) ([1]; Day 8): relatively normal appearance
kidney histopathology (PAS, Masson trichrome) ([1]; Day 56): few focal and segmental glomerulosclerosis and tubulointerstitial fibrosis
urea serum level ([1]; throughout the course of the disease): below 10 mmol/l
acanthosis (epidermal thickness) [2]: significantly reduced the acanthosis
parakeratosis [2]: absence of any parakeratosis
time until completely degraded [3]: 14 days
LPS-induced TNFα release [4]: blocks LPS-induced TNFα release
